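Values below derive from 48-hour exposures of cells grown in 96-well plates, with endpoints linearly interpolated between the two concentrations bracketing the appropriate inhibition level. Here, GI50 denotes the concentration required for 50% inhibition of growth. The concentration for full growth arrest is given as TGI.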
Assays:
Test in all cases: NCI-60 cell line screen, 48 h
786-0 renal = system: 786-0 renal
A498 renal = system: A498 renal
A549 NSCLC = system: A549 NSCLC
ACHN renal = system: ACHN renal
BT-549 breast = system: BT-549 breast
CAKI-1 renal = system: CAKI-1 renal
CCRF-CEM leukemia = system: CCRF-CEM leukemia
COLO 205 colon = system: COLO 205 colon
DU-145 prostate = system: DU-145 prostate
EKVX NSCLC = system: EKVX NSCLC
HCC-2998 colon = system: HCC-2998 colon
HCT-116 colon = system: HCT-116 colon
HCT-15 colon = system: HCT-15 colon
HL-60(TB) leukemia = system: HL-60(TB) leukemia
HOP-62 NSCLC = system: HOP-62 NSCLC
HOP-92 NSCLC = system: HOP-92 NSCLC
HS 578T breast = system: HS 578T breast
HT29 colon = system: HT29 colon
IGROV1 ovarian = system: IGROV1 ovarian
K-562 leukemia = system: K-562 leukemia
KM12 colon = system: KM12 colon
LOX IMVI melanoma = system: LOX IMVI melanoma
M14 melanoma = system: M14 melanoma
MALME-3M melanoma = system: MALME-3M melanoma
MCF7 breast = system: MCF7 breast
MDA-MB-231 breast = system: MDA-MB-231 breast
MDA-MB-435 = system: MDA-MB-435
MDA-MB-468 breast = system: MDA-MB-468 breast
NCI-H226 lung = system: NCI-H226 lung
NCI-H23 lung = system: NCI-H23 lung
NCI-H460 lung = system: NCI-H460 lung
NCI-H522 lung = system: NCI-H522 lung
NCI/ADR-RES ovarian = system: NCI/ADR-RES ovarian
OVCAR-3 ovarian = system: OVCAR-3 ovarian
OVCAR-4 ovarian = system: OVCAR-4 ovarian
OVCAR-5 ovarian = system: OVCAR-5 ovarian
OVCAR-8 ovarian = system: OVCAR-8 ovarian
PC-3 prostate = system: PC-3 prostate
RPMI-8226 leukemia = system: RPMI-8226 leukemia
RXF 393 renal = system: RXF 393 renal
SF-268 CNS = system: SF-268 CNS
SF-295 CNS = system: SF-295 CNS
SF-539 CNS = system: SF-539 CNS
SK-MEL-2 melanoma = system: SK-MEL-2 melanoma
SK-MEL-28 melanoma = system: SK-MEL-28 melanoma
SK-MEL-5 melanoma = system: SK-MEL-5 melanoma
SK-OV-3 ovarian = system: SK-OV-3 ovarian
SN12C renal = system: SN12C renal
SNB-19 CNS = system: SNB-19 CNS
SNB-75 CNS = system: SNB-75 CNS
SR leukemia = system: SR leukemia
SW-620 colon = system: SW-620 colon
T-47D breast = system: T-47D breast
TK-10 renal = system: TK-10 renal
U251 CNS = system: U251 CNS
UACC-257 melanoma = system: UACC-257 melanoma
UACC-62 melanoma = system: UACC-62 melanoma
UO-31 renal = system: UO-31 renal

Which results are given for `CC/C(=C(/c1ccc(O)cc1)c1ccc(OCCN(C)C(=O)COCCOCCNC(=O)Cc2ccc3c(c2)CN([C@@H]2CCC(=O)NC2=O)C3=O)cc1)c1ccccc1`?
GI50 (786-0 renal): 25.6 µM; TGI (786-0 renal): > 100 µM; GI50 (A498 renal): > 100 µM; TGI (A498 renal): > 100 µM; GI50 (A549 NSCLC): > 34.7 µM; TGI (A549 NSCLC): > 100 µM; GI50 (ACHN renal): > 100 µM; TGI (ACHN renal): > 100 µM; GI50 (BT-549 breast): 0.0554 µM; TGI (BT-549 breast): 0.509 µM; GI50 (CAKI-1 renal): > 26.8 µM; TGI (CAKI-1 renal): > 100 µM; GI50 (CCRF-CEM leukemia): 0.132 µM; TGI (CCRF-CEM leukemia): > 100 µM; GI50 (COLO 205 colon): 0.702 µM; TGI (COLO 205 colon): 8.99 µM; GI50 (DU-145 prostate): > 53 µM; TGI (DU-145 prostate): > 100 µM; TGI (EKVX NSCLC): > 100 µM; GI50 (HCC-2998 colon): 2.16 µM; TGI (HCC-2998 colon): > 35.3 µM; GI50 (HCT-116 colon): > 46.9 µM; TGI (HCT-116 colon): > 84 µM; GI50 (HCT-15 colon): > 28 µM; TGI (HCT-15 colon): > 100 µM; GI50 (HL-60(TB) leukemia): < 0.0208 µM; GI50 (HOP-62 NSCLC): 1.12 µM; TGI (HOP-62 NSCLC): 10.1 µM; GI50 (HOP-92 NSCLC): 0.0677 µM; TGI (HOP-92 NSCLC): 1.8 µM; GI50 (HS 578T breast): 0.427 µM; TGI (HS 578T breast): > 25.2 µM; GI50 (HT29 colon): > 29.8 µM; TGI (HT29 colon): > 100 µM; GI50 (IGROV1 ovarian): 0.166 µM; TGI (IGROV1 ovarian): > 24.8 µM; GI50 (K-562 leukemia): 7.91 µM; TGI (K-562 leukemia): > 100 µM; GI50 (KM12 colon): 2.98 µM; TGI (KM12 colon): > 47.3 µM; GI50 (LOX IMVI melanoma): > 37.1 µM; TGI (LOX IMVI melanoma): > 59.9 µM; GI50 (M14 melanoma): 7.95 µM; TGI (M14 melanoma): > 100 µM; GI50 (MALME-3M melanoma): 0.112 µM; TGI (MALME-3M melanoma): 1.01 µM; GI50 (MCF7 breast): < 0.0192 µM; TGI (MCF7 breast): > 40 µM; GI50 (MDA-MB-231 breast): 0.0438 µM; TGI (MDA-MB-231 breast): 0.173 µM; GI50 (MDA-MB-435): 15.7 µM; TGI (MDA-MB-435): > 50.7 µM; GI50 (MDA-MB-468 breast): < 0.0167 µM; TGI (MDA-MB-468 breast): 0.214 µM; GI50 (NCI-H226 lung): 1.68 µM; TGI (NCI-H226 lung): > 44.4 µM; GI50 (NCI-H23 lung): > 40.6 µM; TGI (NCI-H23 lung): > 68.9 µM; GI50 (NCI-H460 lung): > 56.7 µM; TGI (NCI-H460 lung): > 100 µM; GI50 (NCI-H522 lung): > 33.1 µM; TGI (NCI-H522 lung): > 53.1 µM; GI50 (NCI/ADR-RES ovarian): > 100 µM; TGI (NCI/ADR-RES ovarian): > 100 µM; GI50 (OVCAR-3 ovarian): 10.3 µM; TGI (OVCAR-3 ovarian): > 53 µM; GI50 (OVCAR-4 ovarian): 13.6 µM; TGI (OVCAR-4 ovarian): > 100 µM; GI50 (OVCAR-5 ovarian): 13 µM; TGI (OVCAR-5 ovarian): > 100 µM; GI50 (OVCAR-8 ovarian): 0.939 µM; TGI (OVCAR-8 ovarian): > 100 µM; GI50 (PC-3 prostate): 0.407 µM; TGI (PC-3 prostate): > 100 µM; GI50 (RPMI-8226 leukemia): 3.35 µM; TGI (RPMI-8226 leukemia): > 32.3 µM; GI50 (RXF 393 renal): 3.25 µM; TGI (RXF 393 renal): > 30.7 µM; GI50 (SF-268 CNS): 3 µM; TGI (SF-268 CNS): > 100 µM; GI50 (SF-295 CNS): > 31.3 µM; TGI (SF-295 CNS): > 100 µM; GI50 (SF-539 CNS): > 32.6 µM; TGI (SF-539 CNS): > 49.2 µM; GI50 (SK-MEL-2 melanoma): 1.14 µM; TGI (SK-MEL-2 melanoma): 9.32 µM; GI50 (SK-MEL-28 melanoma): 6.19 µM; TGI (SK-MEL-28 melanoma): > 44 µM; GI50 (SK-MEL-5 melanoma): 7.88 µM; TGI (SK-MEL-5 melanoma): > 28.2 µM; GI50 (SK-OV-3 ovarian): 3.57 µM; TGI (SK-OV-3 ovarian): > 100 µM; GI50 (SN12C renal): 1.01 µM; TGI (SN12C renal): > 43 µM; GI50 (SNB-19 CNS): 1.11 µM; TGI (SNB-19 CNS): > 87 µM; GI50 (SNB-75 CNS): 0.0486 µM; TGI (SNB-75 CNS): 13.9 µM; GI50 (SR leukemia): 10 µM; TGI (SR leukemia): > 44.9 µM; GI50 (SW-620 colon): 0.49 µM; TGI (SW-620 colon): > 40.1 µM; GI50 (T-47D breast): < 0.0166 µM; TGI (T-47D breast): 1.48 µM; GI50 (TK-10 renal): > 100 µM; TGI (TK-10 renal): > 100 µM; GI50 (U251 CNS): > 35.3 µM; TGI (U251 CNS): > 74.7 µM; GI50 (UACC-257 melanoma): > 44.7 µM; TGI (UACC-257 melanoma): > 76 µM; GI50 (UACC-62 melanoma): > 31.3 µM; TGI (UACC-62 melanoma): > 54.1 µM; GI50 (UO-31 renal): > 100 µM; TGI (UO-31 renal): > 100 µM
